# Several values for one entry are separate records, joined by “and”; a condition that tells them apart may be missing. Equal entries are not always repeated. Marks after values point to notes of the source that are not given here.
# Tested on: impairment of memory acquisition in step-down test in mice
# Assay: Passive avoidance task (step-down test), scopolamine-induced impairment of memory acquisition
# Format: in vivo
# Settings: scopolamine 0.4 mg/kg alone (amnesia-inducing agent)
smiles,measurement,value
"CN1[C@@H]2C[C@@H](OC(=O)[C@H](CO)c3ccccc3)C[C@H]1[C@@H]1O[C@@H]12 [Scopalamine, scopolamine]",Latency (sec),7.7 ± 0.04^c sec and 7.8 ± 0.03^c sec and 7.8 ± 0.04^c sec
same,No of mistakes,66.8 ± 8.9^c and 65.3 ± 8.6^c and 69.8 ± 8.9^c
